The values below come from the supplement of paper PMC10307832.

Common to all, as to experiment: relative viability (nuclei count vs DMSO), 5 days (fraction); higher = more cells survive
Compound in the test “QS11 + Crizotinib”: C1CC2=C(C1)C=C(C=C2)OC3=NC(=C4C(=N3)N(C=N4)CC5=CC=C(C=C5)C6=CC=CC=C6)N[C@@H](CC7=CC=CC=C7)CO [QS11] + C[C@@H](Oc1cc(-c2cnn(C3CCNCC3)c2)cnc1N)c1c(Cl)ccc(F)c1Cl [Crizotinib] (partner 1 µM)
A digest of the protocol:
(§1)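 For relative viability, nuclei counts in treated wells were divided by those in vehicle wells. Lung cancer cell lines had been pin-tool dosed in 1536-well plates the day after seeding and cultured for 5 days, then fixed and stained in one step (final 0.05% Triton X-100, 1% formaldehyde, 1 ug/ml Hoechst) and imaged at 4×. Doses were one drug alone or a fixed anchor-drug dose plus five library-drug doses (not always all listed) in √10 steps, and values are duplicate-plate medians.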

Compound in the test “QS11 + Foretinib”: C1CC2=C(C1)C=C(C=C2)OC3=NC(=C4C(=N3)N(C=N4)CC5=CC=C(C=C5)C6=CC=CC=C6)N[C@@H](CC7=CC=CC=C7)CO [QS11] + COc1cc2c(Oc3ccc(NC(=O)C4(C(=O)Nc5ccc(F)cc5)CC4)cc3F)ccnc2cc1OCCCN1CCOCC1 [Foretinib] (partner 0.25 µM)
A digest of the protocol:
as §1

Compound in test [1]: C[As](C)SC[C@H](NC(=O)CC[C@H](N)C(=O)O)C(=O)NCC(=O)O [Darinaparsin] + CCNC(=O)c1noc(-c2cc(C(C)C)c(O)cc2O)c1-c1ccc(CN2CCOCC2)cc1 [Luminespib] (partner 0.01 µM)
In a few lines:
as §1

Compound in test [2]: C[As](C)SC[C@H](NC(=O)CC[C@H](N)C(=O)O)C(=O)NCC(=O)O [Darinaparsin] + N=C(N)NC(=N)NCCc1ccccc1 [Phenformin] (partner 250 µM)
In a few lines:
as §1

As to LCLC-97TM1, the relative viability is 0.275 with QS11 + Crizotinib (first compound 0.08 µM); 0.351 with QS11 + Crizotinib (first compound 0.253 µM); 0.392 with QS11 + Crizotinib (first compound 0.8 µM); 0.403 with QS11 + Crizotinib (first compound 2.53 µM); 0.355 in the test with QS11 + Crizotinib (first compound 8 µM); 0.957 with QS11 + Foretinib (first compound 0.08 µM). Besides, the relative viability in the test with QS11 + Foretinib (first compound 0.253 µM) was determined as 0.949; with QS11 + Foretinib (first compound 2.53 µM), 0.934; with QS11 + Foretinib (first compound 8 µM), 0.931; in test [1] (first compound 0.08 µM), 0.939; in test [1] (first compound 0.8 µM), 0.659; in test [1] (first compound 2.53 µM) it was 0.699. Further, the relative viability was 0.888 in test [1] (first compound 8 µM); 0.417 in test [2] (first compound 0.08 µM); 0.412 in test [2] (first compound 0.8 µM); 0.444 in test [2] (first compound 2.53 µM); 0.302 in test [2] (first compound 8 µM).
